# Experimental data: article PMC9322406, “Broad‐range metalloprotease profiling in plants uncovers immunity provided by defence‐related metalloenzyme” (The New Phytologist, 2022)
# Assays:
# Assay in all cases: competition with DK-01 photoaffinity labelling, in-gel fluorescence
# Type in all cases: biochemical
# Details in all cases: 200 uM inhibitor preincubated, 10 uM DK-01; leaf extract; band assigned by knockout
# APM1 = biological target: T1, APM1 (Arabidopsis thaliana, UniProt Q8VZH2)
# T1 construct: assigned by mutant lines
# T1 sequence (Q8VZH2 1-879): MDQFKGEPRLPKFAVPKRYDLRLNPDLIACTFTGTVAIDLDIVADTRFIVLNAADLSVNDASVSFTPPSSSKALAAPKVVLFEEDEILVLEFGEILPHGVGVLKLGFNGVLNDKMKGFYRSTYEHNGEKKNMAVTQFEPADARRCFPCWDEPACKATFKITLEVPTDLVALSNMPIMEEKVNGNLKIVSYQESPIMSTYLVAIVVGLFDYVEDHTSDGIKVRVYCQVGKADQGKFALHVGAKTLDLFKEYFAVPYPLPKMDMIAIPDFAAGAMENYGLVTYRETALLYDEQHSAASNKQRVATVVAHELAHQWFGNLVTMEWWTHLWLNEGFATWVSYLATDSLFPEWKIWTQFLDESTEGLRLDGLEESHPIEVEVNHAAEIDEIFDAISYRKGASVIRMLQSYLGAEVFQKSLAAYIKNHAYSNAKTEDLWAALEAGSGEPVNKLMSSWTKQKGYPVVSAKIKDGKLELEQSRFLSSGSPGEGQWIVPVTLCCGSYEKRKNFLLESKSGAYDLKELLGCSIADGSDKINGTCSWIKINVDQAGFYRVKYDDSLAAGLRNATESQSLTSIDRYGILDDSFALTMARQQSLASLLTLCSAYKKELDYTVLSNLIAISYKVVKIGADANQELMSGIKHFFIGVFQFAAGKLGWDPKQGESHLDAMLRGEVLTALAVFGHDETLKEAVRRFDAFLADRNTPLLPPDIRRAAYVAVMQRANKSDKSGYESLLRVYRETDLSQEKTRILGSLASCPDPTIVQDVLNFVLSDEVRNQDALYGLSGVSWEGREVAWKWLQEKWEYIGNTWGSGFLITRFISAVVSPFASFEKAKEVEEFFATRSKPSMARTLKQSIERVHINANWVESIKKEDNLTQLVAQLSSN
# PREP1 = biological target: T2, PREP1 (Arabidopsis thaliana, UniProt Q9LJL3)
# T2 construct: assigned by knockout lines; locus printed At3g18170, probably a misprint for At3g19170
# T2 sequence (Q9LJL3 86-1080): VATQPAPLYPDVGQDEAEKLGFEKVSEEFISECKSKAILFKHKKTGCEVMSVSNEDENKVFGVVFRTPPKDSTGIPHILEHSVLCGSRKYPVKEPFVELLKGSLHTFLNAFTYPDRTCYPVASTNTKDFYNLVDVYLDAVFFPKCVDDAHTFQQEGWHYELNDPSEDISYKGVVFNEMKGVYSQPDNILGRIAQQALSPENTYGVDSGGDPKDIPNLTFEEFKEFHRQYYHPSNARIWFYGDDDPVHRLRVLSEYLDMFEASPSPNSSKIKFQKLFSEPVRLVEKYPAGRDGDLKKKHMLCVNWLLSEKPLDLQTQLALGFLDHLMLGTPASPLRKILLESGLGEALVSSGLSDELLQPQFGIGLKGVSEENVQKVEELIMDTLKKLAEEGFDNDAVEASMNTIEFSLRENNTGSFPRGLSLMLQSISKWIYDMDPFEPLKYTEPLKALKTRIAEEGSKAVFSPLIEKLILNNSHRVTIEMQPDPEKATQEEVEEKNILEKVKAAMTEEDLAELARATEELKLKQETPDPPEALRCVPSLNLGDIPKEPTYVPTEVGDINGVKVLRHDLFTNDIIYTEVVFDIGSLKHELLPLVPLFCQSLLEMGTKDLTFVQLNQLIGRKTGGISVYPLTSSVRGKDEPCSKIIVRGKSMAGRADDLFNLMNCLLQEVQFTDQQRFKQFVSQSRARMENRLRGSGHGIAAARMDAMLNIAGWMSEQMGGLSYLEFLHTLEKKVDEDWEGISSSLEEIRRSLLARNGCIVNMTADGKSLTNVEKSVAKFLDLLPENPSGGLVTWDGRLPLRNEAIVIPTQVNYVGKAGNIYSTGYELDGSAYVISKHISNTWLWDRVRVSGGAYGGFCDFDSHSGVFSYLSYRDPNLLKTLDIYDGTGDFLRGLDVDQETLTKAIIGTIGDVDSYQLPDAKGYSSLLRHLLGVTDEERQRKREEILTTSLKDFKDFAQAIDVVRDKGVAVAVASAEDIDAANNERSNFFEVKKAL
# TOP1 = biological target: T3, TOP1 (Arabidopsis thaliana, UniProt Q94AM1)
# T3 construct: gene OOP; assigned by knockout lines
# T3 sequence (Q94AM1 83-791): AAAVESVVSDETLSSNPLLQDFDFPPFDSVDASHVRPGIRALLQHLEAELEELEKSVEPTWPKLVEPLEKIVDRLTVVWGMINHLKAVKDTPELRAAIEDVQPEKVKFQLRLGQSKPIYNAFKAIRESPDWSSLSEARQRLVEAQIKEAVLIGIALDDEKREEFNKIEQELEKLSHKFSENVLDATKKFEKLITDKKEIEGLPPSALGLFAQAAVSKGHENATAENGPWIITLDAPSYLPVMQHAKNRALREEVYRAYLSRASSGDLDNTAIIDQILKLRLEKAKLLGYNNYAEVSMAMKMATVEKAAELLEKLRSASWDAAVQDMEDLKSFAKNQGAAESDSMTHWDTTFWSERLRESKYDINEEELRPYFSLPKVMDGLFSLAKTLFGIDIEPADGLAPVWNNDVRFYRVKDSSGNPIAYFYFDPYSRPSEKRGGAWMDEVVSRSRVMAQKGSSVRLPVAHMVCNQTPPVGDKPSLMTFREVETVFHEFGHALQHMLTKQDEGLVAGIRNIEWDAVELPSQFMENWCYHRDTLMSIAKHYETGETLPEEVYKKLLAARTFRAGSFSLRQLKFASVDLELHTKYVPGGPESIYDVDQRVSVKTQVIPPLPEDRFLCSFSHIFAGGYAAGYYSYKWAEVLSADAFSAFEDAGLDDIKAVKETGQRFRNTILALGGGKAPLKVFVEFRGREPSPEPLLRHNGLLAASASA
SMILES,"competition with DK-01 photoaffinity labelling, in-gel fluorescence (APM1)","competition with DK-01 photoaffinity labelling, in-gel fluorescence (PREP1)","competition with DK-01 photoaffinity labelling, in-gel fluorescence (TOP1)"
CNC(=O)[C@@H](NC(=O)[C@H](CC(C)C)[C@H](O)C(=O)NO)C(C)(C)C [marimastat],APM1 is marimastat/actinonin‐sensitive and active at pH5 and above,–,–
CNC(=O)[C@H](Cc1c[nH]c2ccccc12)NC(=O)[C@@H](CC(=O)NO)CC(C)C [ilomastat],–,PREP1 is actinonin/ilomastat‐sensitive,–
CCCCC[C@H](CC(=O)NO)C(=O)N[C@H](C(=O)N1CCC[C@H]1CO)C(C)C [actinonin],APM1 is marimastat/actinonin‐sensitive and active at pH5 and above,PREP1 is actinonin/ilomastat‐sensitive,TOP1 labelling is actinonin‐sensitive and requires a neutral pH
